Measurements taken from patent US20250241890A1, “1,4-DIUREAS AND 1,4-DITHIOUREAS AND USES THEREOF” (Purdue Research Foundation, priority 2024, published 2025).

Target: T1, α-synuclein (α-syn) (Homo sapiens, UniProt P37840)
T1 construct: purchased rPeptide (Watkinsville, GA)
Assay: PICUP assay of α-syn oligomer formation
Type: biochemical
Conditions: α-syn 60 μM, compound 50 μM (~molar ratio 1:1)
Protocol: Chemical and peptide source. Dimethylsulfoxide (DMSO) and thioflavin-T (ThT) were purchased from Alfa Aesar (Ward Hill, MA). Recombinant α-synuclein (α-syn) was procured from rPeptide (WatKinsville, GA). The recombinant p-tau isoform 1N4R was prepared as published previously (Fortin et al. 2021, Sui et al. 2015, Liu et al. 2020). Concerning the preparation of tau 0N4R, a bacterial expression plasmid consisting of the vector pET30a carrying a cDNA encoding the human Tau 0N4R isoform was a kind gift of Dr. Benjamin Wolozin (Boston University). E. coli stock (Rosetta BL21 E. coli (CamR) containing pET30a [0N4R tau wt] (KanR)) was grown in LB medium supplemented with kanamycin (50 μg/mL) and chloramphenicol (50 μg/mL). Protein over-expression was induced by the addition of 1 mM IPTG for ˜18 hours at 37° C., and cells were pelleted by centrifugation at 6,000 g for 15 minutes at 4° C. The cells were resuspended in lysis buffer (10 mM Hepes, pH 7.4, 50 mM NaCl, 1 mM MgCl2, 1 mM PMSF, 1× PIC, and 0.5 mM DTT) and lysed by sonication at 30 seconds “On” and 1 minute “Off” at ˜30-45% power for ˜3-5 minutes. Lysate was centrifuged at 10,000 rpm for 10 minutes at 4° C., and supernatant was transferred with 7.8 ml (total) of 3M NaCl. The lysate was incubated for 10 minutes in 80° C. water bath, then cooled for 10 minutes in an ice bath. The lysate was centrifuged at 10,000 rpm at 4° C. for 10 minutes, and the supernatant was transferred to a new tube. The supernatant was dialyzed overnight against cation exchange buffer (50 mM MES, […], 1 mM DTT, pH 6.0). The dialysate was loaded onto a HiPrep SP HP column, and proteins were eluted with a linear gradient ranging from 50 mM to 1 M NaCl. General Characterizations. ^1H and ^13C {1H} NMR spectra were recorded using a 500 MHz Bruker instrument working at a frequency of 500 MHz for ^1H and at 126 MHz for ^13C. Chemical shifts are reported in ppm using residual solvent resonances as internal reference (δ 2.50 and δ 39.51 for ^1H and ^13C in DMSO-d6, respectively). ^1H NMR data are reported as follows. b=broad, s=singlet, d=doublet, t=triplet, q=quartet, and m=multiplet. Coupling constants are given in hertz. The purity of all compounds and synthetic intermediates was judged to be 95% or better based on ^1H NMR. IR measurements were performed in a Nicolet FTIR as thin films in the Purdue Drug Discovery facility. High-resolution mass spectrometry analyses were conducted at the MSU Mass Spectrometry facility. Thioflavin fluorescence assays. Thioflavin fluorescence assays were used to monitor fibril formation of commercial recombinant α-syn at a final concentration of 2 μM and treated with control DMSO and different compounds. The recombinant α-syn obtained from rPeptide has been validated with proper quality control to confirm the monomeric state of the protein. Kinetics of fibril formation have been performed using ThT as published previously.^6, 12, 13, 24 The fluorescence emission experiments were performed with the excitation and emission wavelengths set at 440 and 485 nm, respectively, with a Synergy HT multi-mode microplate reader (BioTek, Winooski, VT). Samples were measured in three replicates. Experiments were repeated three times using different α-syn stock solutions. For each time point, arbitrary units of fluorescence were calculated from the mean values normalized against the maximum value. The percentage of fluorescence intensity at the plateau phase in Table 1 was expressed as mean #SEM. Concerning the dose response curve depicted in FIG. 2, the data were plotted using GraphPad Prism. Photo-induced Cross-linking of Unmodified Proteins (PICUP) Assay. […] Different compounds were added to the protein solution at a final concentration of 50 μM, resulting in a molar ratio of 1:1. PICUP assays were performed with the following controls: samples without light exposition, without Ru(bpy) or ammonium persulfate, and without compound (i.e., 0.125% DMSO). […]

effect on α-syn oligomer formation (high molecular weight bands) by PICUP	percentage of oligomer reduction (PICUP, relative pixel density) [%]	SMILES
reduced α-syn oligomer formation	91.2	S=C(Nc1ccc(NC(=S)Nc2cccc3cc[nH]c23)cc1)Nc1cccc2cc[nH]c12 [Compound 8, 3-(1H-indol-7-yl)-1-(4-{[(1H-indol-7-yl)carbamothioyl]amino}phenyl)thiourea]
–	52.6	O=C(Nc1ccc(NC(=O)Nc2cccc3[nH]ccc23)cc1)Nc1cccc2[nH]ccc12 [Compound 1, 3-(1H-indol-4-yl)-1-(4-{[(1H-indol-4-yl)carbamoyl]amino}phenyl)urea]
reduced α-syn oligomer formation	84.2	S=C(Nc1ccc(NC(=S)Nc2cccc3[nH]ccc23)cc1)Nc1cccc2[nH]ccc12 [Compound 2, 3-(1H-indol-4-yl)-1-(4-{[(1H-indol-4-yl)carbamothioyl]amino}phenyl)thiourea]
